Data set [1] can be described thus: AUC in Beagle dog at 50 mg/kg, po once daily for 14 days. To be noted: plasma. It counts as ADME, organism-based, Canis lupus familiaris. Also noted: dose 50 mg/kg, route oral.
Data set [2] can be described thus: AUC in Sprague-Dawley rat at 300 mg/kg, po once daily for 14 days. It counts as ADME, organism-based. Also noted: dose 300 mg/kg, route oral. The note with it: plasma.
In data set [3] the test system is Syrian golden hamster. Kind of data set: Antidiabetic activity in Syrian golden hamster assessed as reduction in triglyceride level at 100 mg/kg, po once daily for 9 days relative to control. The format is functional, Mesocricetus auratus. Also on record: scale not given: the % may be the effect or the level left.
Data set [4] has as its system Syrian golden hamster. Kind of data set: Antidiabetic activity in Syrian golden hamster assessed as reduction in cholesterol level at 100 mg/kg, po once daily for 9 days relative to control. The format is functional, Mesocricetus auratus. Also noted: scale not given: the % may be the effect or the level left.
The nature of data set [5]: AUC in Syrian golden hamster at 100 mg/kg, po once daily for 9 days. It counts as ADME, organism-based, Mesocricetus auratus. Also noted: dose 100 mg/kg, route oral. To be noted: plasma.
Data set [6] is described as follows: Cmax in Beagle dog at 50 mg/kg, po once daily for 14 days. The format is ADME, organism-based, Canis lupus familiaris. Also on record: dose 50 mg/kg, route oral. The note with it: in vivo.
The test system of a further data set is Canis familiaris. Nature of the data set: Antidiabetic activity in Beagle dog assessed as reduction in total cholesterol level at 50 mg/kg, po once daily for 14 days relative to control. Also on record: scale not given: the % may be the effect or the level left. It counts as functional, Canis lupus familiaris.

What is called AUC is the area under the concentration-time curve, a measure of exposure. For orientation: Cmax means the highest concentration seen after dosing. As to `CC(C)OC(=O)C(C)(C)Oc1ccc(C(=O)c2ccc(Cl)cc2)cc1` [FENOFIBRATE], the area under the curve (AUC) at 336 h in data set [1] worked out at 117 µM·h; in data set [2], 5600 µM·h. Also, the Activity with Syrian golden hamster [3] was 33.7%; in the data set on Syrian golden hamster [4], 22.7%; in the data set on Canis familiaris, 17%. The compound also displayed an AUC at 216 h in data set [5] of 1800 µM·h. Besides, the concentration in data set [6] peaked (Cmax) at 15 µM.

Values taken from ChEMBL document CHEMBL1158459, “Discovery of a peroxisome proliferator activated receptor gamma (PPARgamma) modulator with balanced PPARalpha activity for the treatment of type 2 diabetes and dyslipidemia” (J Med Chem, 2009).
